Reference: PMC10886515, “Discovery of A Novel Series of Quinazoline–Thiazole Hybrids as Potential Antiproliferative and Anti-Angiogenic Agents” (Biomolecules, 2024)
Where two headings read alike, the source gives them in different places.

What was measured:
[1] = tested on: HepG2 cells; test: Alamar Blue cytotoxicity assay on HepG2 cells; format: cell-based, human; conditions: for IC50: Homo sapiens, read-out: IC50 HepG2; for Selectivity Index SIb: SIb = IC50 BJ/IC50 HepG2
Source text: (§1) A human endothelial hybrid cell line (EA.hy926) (passage number 10–15), human hepatocellular carcinoma (HepG2) cells (passage number 10–15), and normal foreskin fibroblasts (BJ) (passage number 5–10) were used in the present study. All cell lines were purchased from ATCC (Manassas, United States of America). EA.hy926 cells were maintained in DMEM with high glucose supplemented with 1% sodium pyruvate, while the BJ cells were maintained in DMEM with low glucose concentration. HepG2 cells were cultured in MEM. All media were supplemented with 10% fetal bovine serum (FBS) and 1% penicillin/streptomycin. All cell lines were cultured at 37 °C in an incubator with 5% CO2 supplementation and cellular media were refreshed every other day. Once the cells reached a confluency of 80–90%, they were either subcultured or used in experiments.
(§2) The synthesized compounds’ cytotoxicity was evaluated using the Alamar Blue (AB) assay as previously described. The metabolically active cell-dependent conversion of non-fluorescent resazurin to the highly fluorescent resorufin compound is quantified spectrophotometrically at λexcitation = 530/25; λemission = 590/35, using a Synergy 2 Multi-Mode microplate reader. Briefly, a total of 5 x 10^3 EA.hy926 and BJ cells and 1 x 10^4 HepG2 cells were seeded in 100 µL in 96 well plates. The cells were left to attach overnight. […] At 48 h post-stimulation, the media were removed, and the AB assay was performed. The reported range of concentrations for each compound was obtained by employing the up-and-down method.
(§3) The experiments were conducted in three biological replicates, each one including 6 technical replicates. Cells exposed to culture media with 0.2% DMSO served as negative control (NC) and were used for data normalization (100%). The 50% Inhibitory Concentration (IC50) values were determined based on the dose–response curves obtained by fitting the experimental data with a 4-parameter logistic curve in SigmaPlot 11 software.

[2] = tested on: EA.hy926 cells; test: Alamar Blue cytotoxicity assay on EA.hy926 cells; format: cell-based, human; conditions: for IC50: Homo sapiens, read-out: IC50 EA.hy926; for Selectivity Index SIa: SIa = IC50 BJ/IC50 EA.hy296
Source text: as §1, §2, §3

[3] = tested on: BJ cells; test: Alamar Blue cytotoxicity assay on BJ cells; format: cell-based; conditions: Homo sapiens, 48 h exposure, normal foreskin fibroblasts
Source text: as §1, §2, §3

[4] = tested on: chorioallantoic membrane (CAM) of chicken eggs; test: Chorioallantoic egg membrane (CAM) assay; format: in vivo; conditions: for peak number of vascular branching points from day 3, fold lower than control sample: day 3 vs control (0.2% DMSO); for reduction in vascular branching on day 4 compared to day 3: day 4 vs day 3; for reduction in the number of vascular branching points on day 5 compared to day 5 of the control sample: day 5 vs control (0.2% DMSO); for reduction in vascular branching on day 5 compared to day 3: day 5 vs day 3
Experimental: To assess the anti-angiogenic effects, a biological model represented by the chorioallantoic membrane (CAM) of chicken eggs was employed. […] The experimental procedure involved the following steps: (I) initial cleaning with 70% alcohol solution and incubation of the eggs at a constant humidity (45%) and temperature (37.5 °C) on the first day; (II) on the third day of embryonic development (EDD3), a small hole at the egg tip was created and approximately 5–7 mL of albumen were extracted to facilitate detachment of the chorioallantoic membrane from the inner shell; and (III) on EDD4, a window was created at the egg’s top to visualize the vascular plexus, covering it with adhesive tape, and returning the egg to the incubator until the experiment’s commencement.
The assessment of anti-angiogenic impact began on the sixth day of embryonic development and extended over five days. To achieve this, a silicon ring was applied to the CAM, and 10 μL of the tested compounds was administered daily within the ring. The evaluation of angiogenesis involved daily photographic documentation of the vascular plexus using a Discovery v.8 stereomicroscope, a Zeiss Axio CAM 105 color camera, and ZEN core 3.8 software. […] The quantitative evaluation of vessel numbers branching points and total vessel area was performed using the IKOSA Prism Application CAM assay (v3.1.0).

[5] = tested on: EA.hy926 cells; test: Wound healing (scratch) assay; format: cell-based, human; conditions: 12 h
Experimental: EA.hy926 cells were seeded in 12-well plates and incubated for 24 h until confluency was reached. The medium was removed and a scratch in the cell monolayer was manually added with a sterile pipette tip. Subsequently, the cells were gently washed two times with DPBS to remove the detached cells. […] Images were captured at the time of exposure (T0) and 12 h post-exposure (T12). The rate of cell migration was determined by calculating the wound healing percentage (%) according to the formula (AT0 – AT12)/ AT0*100 previously reported. The scratch area at the initial time of exposure (AT0) and after 12 h (AT12), expressed as square pixels (Px^2), were determined using the IKOSA Prisma Application Wound Healing (Scratch) assay (v2.2.0).

[6] = Solubility observed in the cellular media; format: physicochemical; conditions: plasma or biological fluid, read-out: concentrations at which limited solubility in the cellular media was observed
[7] = HepG2, 48 h exposure, Alamar Blue
[8] = EA.hy 926, 48 h exposure, Alamar Blue

SMILES | IC50 [1, 7] | Selectivity Index SIb [1] | melting point | IC50 [2, 8] | Selectivity Index SIa [2] | IC50 [3] | other results
COc1ccc(-c2csc(N/N=C/c3ccc(Oc4ncnc5cc(OC)c(OC)cc45)cc3)n2)cc1 [SA01, (E)-2-(2-(4-((6,7-dimethoxyquinazolin-4-yl)oxy)-benzylidene)hydrazineyl)-4-(4-methoxyphenyl)-thiazole] | 31.2 µM | 1.16 | 230 °C | 3.64 µM | 9.96 | 36.2 µM | 
COc1cc2ncnc(Oc3ccc(/C=N/Nc4nc(-c5ccc(F)cc5)cs4)cc3)c2cc1OC [SA02, (E)-2-(2-(4-((6,7-dimethoxyquinazolin-4-yl)oxy)benzylidene)hydrazineyl)-4-(4-fluorophenyl)-thiazole] | 2.34 µM | 1.00 | 242 to 243 °C | 0.93 µM | 2.53 | 2.35 µM | 
COc1cc2ncnc(Oc3ccc(/C=N/Nc4nc(-c5ccc(Cl)cc5)cs4)cc3)c2cc1OC [SA03, (E)-2-(2-(4-((6,7-dimethoxyquinazolin-4-yl)oxy)benzylidene)hydrazineyl)-4-(4-chlorophenyl)-thiazole] | 4.24 µM | 0.67 | 231 to 232 °C | 0.79 µM | 3.59 | 2.84 µM | fold higher activity compared to sorafenib ([2]; EA.hy926 cells): 8.3 fold
COc1cc2ncnc(Oc3ccc(/C=N/Nc4nc(-c5ccc(C(F)(F)F)cc5)cs4)cc3)c2cc1OC [SA04, (E)-2-(2-(4-((6,7-dimethoxyquinazolin-4-yl)oxy)benzylidene)hydrazineyl)-4-(4-(trifluoromethyl)-phenyl)thiazole] | 2.72 µM | 2.50 | 237 to 238 °C | 0.98 µM | 6.93 | 6.79 µM | peak number of vascular branching points from day 3, fold lower than control sample [4]: 1.3 fold; reduction in vascular branching on day 4 compared to day 3 [4]: 47%; reduction in the number of vascular branching points on day 5 compared to day 5 of the control sample [4]: 67%; reduction in vascular branching on day 5 compared to day 3 [4]: 60%; Wound heal (%) ([5]; 0.25 μM): 63.45%; Wound heal (%) ([5]; 0.5 μM): 46.99%; Wound heal (%) ([5]; 0.75 μM): 46.83%; Wound heal (%) ([5]; 1 μM): 43.87%
COc1cc2ncnc(Oc3ccc(/C=N/Nc4nc(-c5ccc(C#N)cc5)cs4)cc3)c2cc1OC [SA05, (E)-2-(2-(4-((6,7-dimethoxyquinazolin-4-yl)oxy)benzylidene)hydrazineyl)-4-(4-benzonitrile)thiazole] | 1.83 µM | 1.46 |  | 1.4 µM | 1.91 | 2.67 µM | fold higher activity compared to sorafenib ([1]; HepG2 cells): 3.5 fold; peak number of vascular branching points from day 3, fold lower than control sample [4]: 1.18 fold; reduction in vascular branching on day 4 compared to day 3 [4]: 16%; reduction in the number of vascular branching points on day 5 compared to day 5 of the control sample [4]: 42%; reduction in vascular branching on day 5 compared to day 3 [4]: 39%; Wound heal (%) ([5]; 0.75 μM): 66.41%; Wound heal (%) ([5]; 1 μM): 62.45%; Wound heal (%) ([5]; 1.25 μM): 61.52%; Wound heal (%) ([5]; 1.5 μM): 54.42%
COc1cc2ncnc(Oc3ccc(/C=N/Nc4nc(C)cs4)cc3)c2cc1OC [SA06, (E)-2-(2-(4-((6,7-dimethoxyquinazolin-4-yl)-oxy)-benzylidene-)hydrazineyl)-4-methyl-thiazole] | > 100 µM |  |  | > 10 µM |  | > 100 µM | solubility [6]: > 5 µM
COc1cc2ncnc(Oc3ccc(/C=N/Nc4nc(-c5ccc(O)c(C(N)=O)c5)cs4)cc3)c2cc1OC [SA07, (E)-5-(2-(2-(4-((6,7-dimethoxyquinazolin-4-yl)oxy)benzylidene)hydrazineyl)thiazol-4-yl)-2-hydroxy-benzamide] | 27.3 µM | 0.87 | 246 to 247 °C | 5.85 µM | 4.06 | 23.8 µM | 
CNC(=O)c1cc(Oc2ccc(NC(=O)Nc3ccc(Cl)c(C(F)(F)F)c3)cc2)ccn1 [Sorafenib, sorafenib, reference compound] |  |  |  |  |  | 13.2 µM | IC50 ([1]; HepG2, 48 h): 6.28 µM; IC50 ([2]; EA.hy 926, 48 h): 6.62 µM; Wound heal (%) ([5]; 1.25 μM): 70.54%; Wound heal (%) ([5]; 2.5 μM): 37.99%; Wound heal (%) ([5]; 5 μM): 18.88%
